In test [1] the test system is male C57BL mice. Kind of test: Inhibition of starvation-induced insulin resistance (blood glucose after 8 h starvation). The class given is in vivo. Particulars: for inhibition of insulin-resistance developed in the course of starvation: i.p. ~35 mg/kg, 8 h starvation, compared to vehicle; for % blood glucose decrease following 8 h starvation / Mean blood glucose after 8 h starvation (% of time 0): i.p. 1 mg/mouse (~35 mg/kg); for % blood glucose decrease following 8 h starvation: compared with time 0; for Mean blood glucose after 8 h starvation (% of time 0): level after 8 h starvation compared to t0 (=100%), vehicle 90.3; for inhibition of starvation-induced insulin-resistance (words, FIG. 1): Example 5, 20 mg/kg i.p., relative change in blood glucose compared to time 0 (=100%). As for the experimental part:
Protocol: Blood glucose was measured in the morning (time 0). The mice were then injected intraperitoneally with a peptide (1 mg/mouse=˜35 mg/kg) or with a vehicle and placed in a cage with water but no food. After 8 hrs starvation, blood glucose was measured again and the mice were supplied with food. […]
The ability of the peptides ACD-403.3, ACD-047.7 and ACD-040.2 described in Example 1 above, to inhibit insulin-resistance induced by starvation was tested in mice (male C57BL mice ˜9-10 wks old).
Peptides' solutions for injection were prepared as follows: 5 mg peptide were dissolved in 1 ml of a solution composed of 5% hydroxypropyl-beta-cyclodextrin (HPβCD)+2% Propylene glycol (PG)+2% Tween-80 in DDW (Wt/Vol). If needed, the solution was warmed up to 80° C. to facilitate peptide solubilization. 0.2 ml of this solution, or from a vehicle (no peptide), were injected i.p. into the mice.
The results, summarized in Table 4 below, are expressed as % change in blood glucose level after 8 h starvation, compared to t0 (=100%), as well as % decrease in blood glucose after 8 hrs starvation, compared with blood glucose at time 0. A higher decrease in glucose levels in the blood indicates better intake of glucose by cells, which reflects better inhibition of the starvation-induced insulin resistance. […]

Test [2] has as its system obese diabetic mice (db/db). Kind of test: Blood glucose response of obese diabetic (db/db) mice to peptide treatment. The format is in vivo. Particulars: for Blood glucose: mean, n=3; for % change from time point (−4) in blood glucose: compared to first baseline (241 mg/dL). How it is done: ACD-004 was tested for its effect on hyperglycemia in obese diabetic mice (db/db).
Protocol: Mice (n=3) were kept on normal, unlimited diet. Prior to peptide treatment, baseline measurements of blood glucose and body weight were taken every ˜3 weeks through a period of 2.5 months (see time points (−1)-(−4) in Table 3 below). Injections of the peptide (intraperitoneally, ˜35 mg/kg) started on time point 0 and continued on time points 1 and 2, twice a day. Blood glucose and body weight were measured at the indicated days.
The results, summarized in Table 3, are expressed as mean % change in blood glucose compared to the first baseline measurement (time point (−4)).
Mice (n=16) were kept on normal, unlimited diet. Injections of the peptide (i.p., 20 mg/kg, n=9) or vehicle (i.p., n=7) started at 3-4 m of age (time point ‘0’) and continued for 3 days, once a day. In a similar experiment the peptide […] were injected to mice with severe diabetes for 7 days.

Setting [3] is: HPβCD/PG/Tween-80 vehicle, vehicle 9.7%.
Setting [4] is: DMSO/Brij-97 vehicle, vehicle 14%.

Marks after values point to notes of the source that are not given here. [ ]: non-standard residue; d: D form. The star is where a group is joined. Stearoyl = CCCCCCCCCCCCCCCCCC(=O)*; Myristoyl = CCCCCCCCCCCCCC(=O)*; Nle = CCCC[C@H](N)C(=O)O; Nva = CCC[C@H](N)C(=O)O

Turning to “Myr-G-R-N-NorVal-Q-K-G-Q-V-T-R-NH2 (Myristoyl-GRN[Nva]QKGQVTR-NH2; SMILES CCCCCCCCCCCCCC(=O)NCC(=O)N[C@@H](CCCNC(=N)N)C(=O)N[C@@H](CC(N)=O)C(=O)N[C@@H](CCC)C(=O)N[C@@H](CCC(N)=O)C(=O)N[C@@H](CCCCN)C(=O)NCC(=O)N[C@@H](CCC(N)=O)C(=O)N[C@H](C(=O)N[C@H](C(=O)N[C@@H](CCCNC(=N)N)C(N)=O)[C@@H](C)O)C(C)C) [ACD-040.2, myristoylated, amidated peptide derived from h-HO-1]”, the “inhibition of insulin-resistance developed in the course of starvation” value (“inhibition … in the course of starvation” below) in test [1] (Example 4) is reported as “effectively inhibited insulin-resistance”. In test [1] (setting [3]), the “% blood glucose decrease following 8 h starvation” value was 36.6%. Further, the “Mean blood glucose after 8 h starvation (% of time 0)” value (from here on “Mean blood glucose … (% of time 0)”) in test [1] (HPβCD/PG/Tween-80 vehicle) is recorded as 63.4** %.

For the substance “Myr-G-R-N-F-Q-K-G-Q-V-T-R-NH2 (Myristoyl-GRNFQKGQVTR-NH2; SMILES CCCCCCCCCCCCCC(=O)NCC(=O)N[C@@H](CCCNC(=N)N)C(=O)N[C@@H](CC(N)=O)C(=O)N[C@@H](Cc1ccccc1)C(=O)N[C@@H](CCC(N)=O)C(=O)N[C@@H](CCCCN)C(=O)NCC(=O)N[C@@H](CCC(N)=O)C(=O)N[C@H](C(=O)N[C@H](C(=O)N[C@@H](CCCNC(=N)N)C(N)=O)[C@@H](C)O)C(C)C) [ACD-004, myristoylated, C-terminally amidated peptide derived from h-HO-1]”, in test [1] (Example 2), the “inhibition … in the course of starvation” value is on record as “effectively inhibited insulin-resistance”. Further, the “% blood glucose decrease following 8 h starvation” value in test [1] (setting [4]) was determined as 47%. Moreover, the “Blood glucose” value in test [2] (ACD-004 i.p. ~35 mg/kg twice a day at time points 0-2, time point 3, age 18.3 wks) is given as 105 mg/dL; in test [2] (ACD-004 i.p. ~35 mg/kg twice a day from time point 0, time point 1, age 17.9 wks), 177 mg/dL; in test [2] (ACD-004 i.p. ~35 mg/kg twice a day from time point 0, time point 2, age 18.1 wks), 139 mg/dL. Moreover, the “effect on blood glucose levels in diabetic mice” value in test [2] (Example 3, i.p. ~35 mg/kg twice a day) is reported as “effectively reduced blood glucose levels”. Besides, the “% change from time point (−4) in blood glucose” value in test [2] (time point 1) is recorded as −27%; in test [2] (time point 2), −42%; in test [2] (time point 3), −56%.

Regarding “Myr-G-R-N-Nle-Q-K-G-Q-V-T-R-NH2 (Myristoyl-GRN[Nle]QKGQVTR-NH2; SMILES CCCCCCCCCCCCCC(=O)NCC(=O)N[C@@H](CCCNC(=N)N)C(=O)N[C@@H](CC(N)=O)C(=O)N[C@@H](CCCC)C(=O)N[C@@H](CCC(N)=O)C(=O)N[C@@H](CCCCN)C(=O)NCC(=O)N[C@@H](CCC(N)=O)C(=O)N[C@H](C(=O)N[C@H](C(=O)N[C@@H](CCCNC(=N)N)C(N)=O)[C@@H](C)O)C(C)C) [ACD-047.9]”, in test [1], the “inhibition of starvation-induced insulin-resistance (words, FIG. 1)” value (“inhibition … (words, FIG. 1)” for short) was “inactive”.

For the substance “Myr-G-R-N-I-Q-K-G-Q-V-T-R-NH2 (Myristoyl-GRNIQKGQVTR-NH2; SMILES CCCCCCCCCCCCCC(=O)NCC(=O)N[C@@H](CCCNC(=N)N)C(=O)N[C@@H](CC(N)=O)C(=O)N[C@H](C(=O)N[C@@H](CCC(N)=O)C(=O)N[C@@H](CCCCN)C(=O)NCC(=O)N[C@@H](CCC(N)=O)C(=O)N[C@H](C(=O)N[C@H](C(=O)N[C@@H](CCCNC(=N)N)C(N)=O)[C@@H](C)O)C(C)C)[C@@H](C)CC) [ACD-047.8]”, the “inhibition … (words, FIG. 1)” value in test [1] is “inactive”.

For the substance “Stear-G-R-N-H-Q-K-G-Q-V-T-R-NH2 (Stearoyl-GRNHQKGQVTR-NH2; SMILES CCCCCCCCCCCCCCCCCC(=O)NCC(=O)N[C@@H](CCCNC(=N)N)C(=O)N[C@@H](CC(N)=O)C(=O)N[C@@H](Cc1c[nH]cn1)C(=O)N[C@@H](CCC(N)=O)C(=O)N[C@@H](CCCCN)C(=O)NCC(=O)N[C@@H](CCC(N)=O)C(=O)N[C@H](C(=O)N[C@H](C(=O)N[C@@H](CCCNC(=N)N)C(N)=O)[C@@H](C)O)C(C)C) [ACD-403.3, stearoylated, amidated peptide derived from h-HO-1]”, in test [1] (Example 4), the “inhibition … in the course of starvation” value was “effectively inhibited insulin-resistance”. Besides, the “% blood glucose decrease following 8 h starvation” value in test [1] (setting [3]) came to 36.7%. Further, in test [1] (HPβCD/PG/Tween-80 vehicle), the “Mean blood glucose … (% of time 0)” value was 63.3** %.

For the substance “Stear-G-R-N-F-Q-K-G-Q-V-T-R-NH2 (Stearoyl-GRNFQKGQVTR-NH2; SMILES CCCCCCCCCCCCCCCCCC(=O)NCC(=O)N[C@@H](CCCNC(=N)N)C(=O)N[C@@H](CC(N)=O)C(=O)N[C@@H](Cc1ccccc1)C(=O)N[C@@H](CCC(N)=O)C(=O)N[C@@H](CCCCN)C(=O)NCC(=O)N[C@@H](CCC(N)=O)C(=O)N[C@H](C(=O)N[C@H](C(=O)N[C@@H](CCCNC(=N)N)C(N)=O)[C@@H](C)O)C(C)C) [ACD-400.3, identical to ACD-004 except N-terminal acyl group is stearoyl instead of myristoyl]”, the “blood glucose following 7-day treatment (words, FIG. 3)” value in test [2] ((db/db) mice with severe diabetes, injected for 7 days, vs vehicle) is “outstanding decrease in blood glucose”. In addition, in test [2] (i.p. 20 mg/kg once a day for 3 days, n=9 vs vehicle n=7), the “blood glucose following 3-day treatment (words, FIG. 2)” value is on record as “outstanding decrease in blood glucose”.

Take “Myr-G-R-N-L-Q-K-G-Q-V-T-R-NH2 (Myristoyl-GRNLQKGQVTR-NH2; SMILES CCCCCCCCCCCCCC(=O)NCC(=O)N[C@@H](CCCNC(=N)N)C(=O)N[C@@H](CC(N)=O)C(=O)N[C@@H](CC(C)C)C(=O)N[C@@H](CCC(N)=O)C(=O)N[C@@H](CCCCN)C(=O)NCC(=O)N[C@@H](CCC(N)=O)C(=O)N[C@H](C(=O)N[C@H](C(=O)N[C@@H](CCCNC(=N)N)C(N)=O)[C@@H](C)O)C(C)C) [ACD-047.7, myristoylated, amidated peptide derived from h-HO-1]”: the “inhibition … in the course of starvation” value in test [1] (Example 4) was “effectively inhibited insulin-resistance”. For the same substance, the “inhibition … (words, FIG. 1)” value in test [1] was “inhibited significantly”. For the same substance, in test [1] (setting [3]), the “% blood glucose decrease following 8 h starvation” value stood at 39.2%. For the same substance, in test [1] (HPβCD/PG/Tween-80 vehicle), the “Mean blood glucose … (% of time 0)” value is recorded as 60.8** %.

For “Myr-G-F-T-K-G-Q-V-T-NH2 (Myristoyl-GFTKGQVT-NH2; SMILES CCCCCCCCCCCCCC(=O)NCC(=O)N[C@@H](Cc1ccccc1)C(=O)N[C@H](C(=O)N[C@@H](CCCCN)C(=O)NCC(=O)N[C@@H](CCC(N)=O)C(=O)N[C@H](C(=O)N[C@H](C(N)=O)[C@@H](C)O)C(C)C)[C@@H](C)O) [ACD-005, myristoylated, amidated peptide derived from h-HIF1α]”, the “inhibition … in the course of starvation” value in test [1] (Example 2) is listed as “effectively inhibited insulin-resistance”. Further, in test [1] (setting [4]), the “% blood glucose decrease following 8 h starvation” value is 49%.

Values taken from US20210171604A1, “PEPTIDES FOR THE TREATMENT OF TYPE 2 DIABETES” (YISSUM RESEARCH DEVELOPMENT COMPANY OF THE HEBREW …, priority 2017, published 2021).
